Patent USRE38132E1, “Phenylpyrrolidines, phenylimidazolidines,3-phenyl-1,3-oxizolidines and 3-phenyl-1,3-thiazolidines and their use in the treatment of inflammatory disease” (Boehringer Ingelheim Pharmaceuticals, Inc., priority 1997, dated 2003)
pIC50, pKd: −log10 of the molar value. Read-outs that look alike come from different tables or passages of the source.

How the values were obtained:
[1] = biological target: T1, interaction of ICAM-1 with the Leukointegrin CD18/CD11a (LFA-1) (Homo sapiens, UniProt P05107+P20701); assay: Assay to determine inhibition of LFA-1 binding to ICAM-1 (immunopurified LFA-1 on plate-bound sICAM-1, ELISA readout)
T1 construct: endogenous in cells; sICAM-1: made in house, secreted from transfected CHO DUX cells
T1 sequence (P20701 26-1170): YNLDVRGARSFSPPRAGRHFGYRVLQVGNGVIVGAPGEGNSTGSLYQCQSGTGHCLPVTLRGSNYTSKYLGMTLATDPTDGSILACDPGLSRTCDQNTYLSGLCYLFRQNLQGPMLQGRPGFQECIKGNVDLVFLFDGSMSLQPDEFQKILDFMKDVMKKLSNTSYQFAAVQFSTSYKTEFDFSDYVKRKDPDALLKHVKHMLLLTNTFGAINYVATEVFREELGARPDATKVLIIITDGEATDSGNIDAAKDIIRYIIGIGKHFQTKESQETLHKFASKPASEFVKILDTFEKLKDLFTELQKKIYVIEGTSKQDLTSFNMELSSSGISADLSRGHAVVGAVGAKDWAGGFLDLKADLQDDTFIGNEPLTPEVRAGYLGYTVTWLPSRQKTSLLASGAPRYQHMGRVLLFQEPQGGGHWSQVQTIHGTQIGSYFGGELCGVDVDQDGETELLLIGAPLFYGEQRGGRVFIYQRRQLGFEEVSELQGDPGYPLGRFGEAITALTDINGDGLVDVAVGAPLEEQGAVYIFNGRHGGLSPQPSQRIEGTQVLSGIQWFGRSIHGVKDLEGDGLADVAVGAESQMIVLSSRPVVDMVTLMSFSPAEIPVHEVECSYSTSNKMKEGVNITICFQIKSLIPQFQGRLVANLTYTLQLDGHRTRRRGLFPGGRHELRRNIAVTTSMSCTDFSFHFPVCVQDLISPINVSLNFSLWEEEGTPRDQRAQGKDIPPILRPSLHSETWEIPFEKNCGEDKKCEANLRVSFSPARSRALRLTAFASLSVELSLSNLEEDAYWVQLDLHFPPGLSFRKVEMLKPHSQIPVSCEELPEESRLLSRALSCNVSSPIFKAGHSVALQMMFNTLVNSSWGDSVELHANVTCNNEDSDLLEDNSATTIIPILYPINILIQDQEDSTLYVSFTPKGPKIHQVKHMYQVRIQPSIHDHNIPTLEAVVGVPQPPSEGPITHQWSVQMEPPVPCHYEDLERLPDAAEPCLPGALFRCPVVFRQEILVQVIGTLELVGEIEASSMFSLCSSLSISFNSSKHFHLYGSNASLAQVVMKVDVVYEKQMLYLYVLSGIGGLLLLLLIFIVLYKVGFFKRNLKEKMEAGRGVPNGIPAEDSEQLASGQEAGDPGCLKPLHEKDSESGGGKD
T1 sequence (P05107 23-769): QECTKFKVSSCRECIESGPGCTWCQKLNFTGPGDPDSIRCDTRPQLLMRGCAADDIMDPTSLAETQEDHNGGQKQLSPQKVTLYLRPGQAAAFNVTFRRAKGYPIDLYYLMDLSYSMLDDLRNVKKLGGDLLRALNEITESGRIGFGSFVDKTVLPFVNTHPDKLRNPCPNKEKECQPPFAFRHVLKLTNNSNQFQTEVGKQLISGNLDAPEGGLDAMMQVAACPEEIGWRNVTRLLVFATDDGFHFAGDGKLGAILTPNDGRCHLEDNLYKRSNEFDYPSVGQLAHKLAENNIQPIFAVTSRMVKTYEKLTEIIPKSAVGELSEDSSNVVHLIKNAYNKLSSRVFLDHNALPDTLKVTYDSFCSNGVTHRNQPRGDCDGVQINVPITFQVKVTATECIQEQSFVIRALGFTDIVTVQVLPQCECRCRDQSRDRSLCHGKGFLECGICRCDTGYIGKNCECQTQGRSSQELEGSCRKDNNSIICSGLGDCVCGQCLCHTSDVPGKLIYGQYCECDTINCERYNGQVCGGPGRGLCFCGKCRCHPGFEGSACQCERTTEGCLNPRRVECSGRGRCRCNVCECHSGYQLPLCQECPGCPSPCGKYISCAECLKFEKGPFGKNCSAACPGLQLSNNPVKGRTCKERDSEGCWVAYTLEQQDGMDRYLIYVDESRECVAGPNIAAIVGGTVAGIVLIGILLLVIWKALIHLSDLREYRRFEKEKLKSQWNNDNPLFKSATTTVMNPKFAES

[2] = system: cell bound form of LFA-1 (CD18, CD11a) with ICAM-1, SKW3 cells; assay: Inhibition of SKW3 cell binding to ICAM-1 (PMA-stimulated); assay type: cell-based, human; conditions: read-out: Assay to Detect SKW3 Cells Binding to ICAM IC50
Source text: (§1) Assay to Determine Inhibition of SKW3 cell binding to ICAM-1 vs. Binding to Fibronectin
(§2) This assay is used to test the selective ability of a test compound to antagonize the interaction of a cell bound form of LFA-1 with ICAM-1. The assay uses a human T cell line, SKW3 cells which express CD18, CD11a and other integrins not related to CD18, CD11a and which can be “activated” by phorbol esters. Phorbol esters enhance the affinity of CD18, CD11a for ICAM-1.
(§3) This same lymphocyte line, SKW3, also adheres to fibronectin in the presence of phorbol esters. This adhesion is mediated by membrane proteins independent of the LFA-1/ICAM-1 interaction. The SKW3 cells express another integrin, VLA4, which is the receptor for fibronectin. Therefore, as a preliminary indication of the selectivity of a test compounds to interfere with Leukointegrin/CAM interactions but not other integrin-ligand binding events, a compound can be tested for its ability to antagonize cell bound fibronectin receptor in its interaction with purified fibronectin. Compounds that inhibit this fibronectin adhesion are not specific antagonists of the CD18, CD11a/ICAM-1 binding.
(§4) Description of Assay Protocol:
(§5) Ninety-six well plates are coated with either sICAM-1(40 μg/mL) or fibronectin (100 μg/mL) in Diluting buffer for 1 h at room temperature. Added to the wells are 100 μL of the appropriately diluted test compound or 100 μL of RPMI with 15% fetal bovine serum as a control. SKW3 cells, which express CD18, CD11a and VLA4 (Dustin, M.; et al., J. Exp. Med. 1987, 165, 672-692) are washed and suspended to a concentration of 10^6 cells/mL in RPMI with 15% fetal bovine serum. Immediately before adding the cells to the wells, cells are stimulated with the phorbol ester 12-myristate 13-acetate (PMA) for a final concentration of […]. 100 μL of cells are then added to the wells resulting in a final concentration of […]. The plates are incubated for 2 h at 37° C. Unbound or loosely bound cells are gently washed away with RPMI.
(§6) Data are reported as the concentration or concentration range (in μM) at which 50% of binding is inhibited.

[3] = system: cell bound fibronectin receptor (VLA4) with fibronectin, SKW3 cells; assay: Inhibition of SKW3 cell binding to fibronectin (selectivity counter-assay); assay type: cell-based, human; conditions: for pIC50: Homo sapiens, SKW3, values marked c: no inhibition observed up to highest dose, read-out: Assay to Detect SKW3 Cells Binding to FIBRONECTIN IC50
Source text: as §1, §2, §3, §4, §5, §6

[4] = system: LFA-1 dependent aggregation of JY cells; assay: JY cell homotypic aggregation assay (PMA-stimulated); assay type: cell-based, human; conditions: Homo sapiens
Source text: This aggregation can be enhanced by the addition of phorbol esters. […] Thus, the extent of LFA-1-dependent binding may be determined by assessing the extent of spontaneous or phorbol ester-dependent aggregate formation.
An agent which interferes with LFA-1 -dependent aggregation can be identified through the use of an assay capable of determining whether the agent interferes with either spontaneous, or phorbol ester-dependent aggregation of Epstein-Barr virus transformed cells. It is preferable to employ cells of the JY cell line (Terhost, L; et aL, Proc. Natl. Acad. Sci. USA, 1976, 73, 910) for the homotypic aggregation assay. This assay, capable of measuring LFA-1 dependent aggregation, may be employed to identify agents which act as antagonists to the LFA-1 dependent aggregation. Such agents may act by impairing the ability of either LFA-1 or ICAM-1 to mediate aggregation. Thus, agents may be examined to directly determine if they are antagonists of LFA-1 aggregation.
as §4
JY cells are cultured in RPMI 1640 culture medium supplemented with 10% fetal calf serum and 50 μg/mL gentamycin. The cells are cultured at 37° C. in an atmosphere of 5% CO2 at a relative humidity of 95%. JY cells used in this assay are washed two times with RPMI 1640 medium containing 5 mM HEPES buffer and resuspended to a concentration of 2·10^6 cells/mL. Added to flat-bottomed, 96-well microtiter plates are 50 μL of test compound diluted in complete medium, 50 μL of complete medium with or without purified monoclonal antibodies (negative and positive controls for inhibition, respectively), 50 μL of complete medium containing 200 ng/mL of the phorbol ester phorbol myristate acetate (PMA) and 100 μL of cells at a concentration of 2·10^6 cells/mL in complete medium. This yields a final concentration of […] PMA and 2·10^5 cells/well. Cells are allowed to settle spontaneously, and the degree of aggregation is scored at various time points. […] This procedure has been described by Rothlein, R. R.; et al., J. Exp. Med. 1986, 163, 1132-1149. This paper also reported that antibody to LFA-1 is capable of inhibiting the formation of aggregates.
as §6

[5] = values marked e approximated from incomplete dose-response curve
[6] = Homo sapiens, SKW3, values marked c: no inhibition observed up to highest dose
[7] = values marked c: no inhibition observed up to highest dose

Compound	pKd [1, 5]	pIC50 [2, 6]	Assay to Detect SKW3 Cells Binding to FIBRONECTIN IC50 [3, 7]	pIC50 [4]	Cellular Toxicity Assay MTT LD50 (SKW3 cells) [µM]	pIC50 [3]	pIC50 [2, 7]	pIC50 ([2]; Homo sapiens, SKW3)	Assay to Detect SKW3 Cells Binding to FIBRONECTIN IC50 ([3]; No inh = no inhibition observed up to highest dose, exact quantification not always possible due to intrinsic toxicity)	pKd [1]
CC(C)N1C(=O)N(c2cc(Cl)cc(Cl)c2)C(=O)C1Cc1ccccc1 (centres unmarked) [Example 10]	6.72	4.30	No inh^c	5.20	>500					
O=C1N[C@H](Cc2ccccc2)C(=O)N1c1cc(Cl)cc(Cl)c1 [Example 15]	5.64	4.20 to 4.51	No Inh^c	4.30 to 4.60	125 to 250					
CC1(Cc2ccccc2)NC(=O)N(c2cc(Cl)cc(Cl)c2)C1=O (centres unmarked) [Example 18]	6.12	4.20 to 4.49		5.22	125 to 250	< 3.90				
CC1(Cc2c[nH]c3ccccc23)NC(=O)N(c2cc(Cl)cc(Cl)c2)C1=O (centres unmarked) [Example 23]	6.11			4.89	50 to 100	< 4.00	4.30 to 4.60			
CC(C)N1C(=O)N(c2cc(Cl)cc(Cl)c2)C(=O)C1Cc1ccc(Br)cc1 (centres unmarked) [Example 34]	6.89	5.22	No inh^c	5.74	200 to 400					
C[C@]1(Cc2ccc(Br)cc2)NC(=O)N(c2cc(C(F)(F)F)cc(C(F)(F)F)c2)C1=O [Example 35]	7.00	5.00 to 5.30	No inh^c	6.10	38 to 46					
CN1CCC(N2C(=O)N(c3cc(Cl)cc(Cl)c3)C(=O)[C@@]2(C)Cc2ccc(Br)cc2)CC1 [Example 37]	6.80	5.00 to 5.30		5.80	<13	< 4.72				
C[C@]1(Cc2cc(Br)cc(Br)c2)NC(=O)N(c2cc(Cl)cc(Cl)c2)C1=O [Example 40]	6.32	4.00 to 4.30		4.60	50 to 100	4.00 to 4.30				
C[C@]1(Cc2ccc(Br)cc2)NC(=O)N(c2cc(Cl)c(Cl)c(Cl)c2)C1=O [Example 43]	6.77	5.22 to 5.52	No inh^c	5.74	25 to 50					
C[C@]1(Cc2ccc([N+](=O)[O-])cc2)NC(=O)N(c2cc(Cl)cc(Cl)c2)C1=O [Example 44]	6.38	4.92 to 5.22	No inh^c	6.52	63 to 125					
CN1C(=S)N(c2cc(Cl)cc(Cl)c2)C(=O)C1(C)Cc1ccc(Br)cc1 (centres unmarked) [Example 80]	6.72	5.30	No inh^c	5.49	>400					
CC1(Cc2ccc(Br)cc2)NC(=O)N(c2cc(Cl)cc(Cl)c2)C1=S (centres unmarked) [Example 81]	7.10	5.52 to 6.00	No inh^c	5.20	25 to 50					
CN1C(=O)N(c2cc(Cl)cc(Cl)c2)C(=O)[C@@H]1Cc1ccccc1 [Example 87]	5.70	4.00 to 4.30		4.30	>500	< 4.00				
CCC1(Cc2ccccc2)C(=O)N(c2cc(Cl)cc(Cl)c2)C(=O)N1C (centres unmarked) [Example 93]	5.90	< 4.00	No inh^c	4.89	100 to 200					
CCCC1(Cc2ccccc2)C(=O)N(c2cc(Cl)cc(Cl)c2)C(=O)N1C (centres unmarked) [Example 94]	6.13	4.00 to 4.30	No inh^c	4.60	200					
CCN1C(=O)N(c2cc(Cl)cc(Cl)c2)C(=O)[C@@]1(C)Cc1ccc(Br)cc1 [Example 97]	7.64	5.00 to 5.30	No inh^c	5.70	>350					
CN1C(=O)N(c2cc(C(F)(F)F)cc(C(F)(F)F)c2)C(=O)[C@@]1(C)Cc1ccc(Br)cc1 [Example 100]	6.72	4.82 to 5.10		6.15	>400	< 4.22				
C[C@@]1(Cc2ccc(Br)cc2)C(=O)N(c2cc(Cl)cc(Cl)c2)C(=O)N1Cc1ccncc1 [Example 103]	7.00	4.60		6.89	25 to 50	< 4.60				
[2H]C([2H])([2H])N1C(=O)N(c2cc(Cl)cc(Cl)c2)C(=O)[C@@]1(C)Cc1ccc(Br)cc1 [Example 109]		5.22 to 5.52	No inh^c	6.40	100 to 200					
C[C@@]1(Cc2ccc(Br)cc2)C(=O)N(c2cc(Cl)cc(Cl)c2)C(=O)N1Cc1ccccn1 [Example 110]	6.82	4.60	No inh^c	5.05	200 to 400					
Cc1ccc(C[C@@]2(C)NC(=O)N(c3cc(Cl)cc(Cl)c3)C2=O)cc1 [Example 119]		> 5.52	No inh^c	7.30	>400					
C[C@@]1(Cc2ccc(Br)cc2)C(=O)N(c2cc(Cl)cc(Cl)c2)C(=O)N1C(=O)C1CCCN1 (some centres unmarked) [Example 234]				5.80	100 to 200			5.00 to 5.30	No inh^c	
C[C@@]1(Cc2ccc(Br)cc2)C(=O)N(c2cc(Cl)cc(Cl)c2)C(=O)N1CCCC[N+](C)(C)C [Example 253]				6.70	100 to 200			5.70 to 6.00		7.30
C[C@@]1(Cc2ccc(Br)cc2)C(=O)N(c2cc(Cl)cc(Cl)c2)C(=O)N1CCC[N+](C)(C)C [Example 254]				6.40	100 to 200			5.70 to 6.00		7.10
C[C@@]1(Cc2ccc(Br)cc2)C(=O)N(c2cc(Cl)cc(Cl)c2)C(=O)N1CCCCC[N+](C)(C)C [Example 255]				6.70	100 to 200			6.00		6.85
